Measured values taken from patent publication US12195427B2, “MASP-2 inhibitors and methods of use” (priority 2018, dated 2025).

Biological target: MASP-2 CCP2-SP (Homo sapiens (Human), UniProt O00187)
Test: MASP-2 co-crystallization, X-ray crystallography and structure analysis (H-bonds, van der Waals contacts);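 as to Ligand-pharmacophore element distance, pharmacophore element C2: distance from averaged pharmacophore element to bound ligand; missing value means element absent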;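 as to Ligand-pharmacophore element distance, pharmacophore element C3: distance from averaged pharmacophore element to bound ligand; missing value means element absent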;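 as to Ligand-pharmacophore element distance, pharmacophore element C4: distance from averaged pharmacophore element to bound ligand; missing value means element absent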;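 as to Ligand-pharmacophore element distance, pharmacophore element C5: distance from averaged pharmacophore element to bound ligand; missing value means element absent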
Set-up: van der Waals contact distance, MASP-2 HIS 483 atom CD2 / van der Waals contact distance, MASP-2 HIS 483 atom NE2 / van der Waals contact distance, SER 654 C to compound atom / van der Waals contact distance, SER 654 O to compound atom / van der Waals contact distance, TRP 655 C to compound atom / van der Waals contact distance, MASP-2 GLY 528 atom CA / van der Waals contact distance TRP 655 atom CZ3 / van der Waals contact distance TRP 655 atom N / van der Waals contact distance TRP 655 atom CE3 / van der Waals contact distance GLY 656 atom C / van der Waals contact distance GLY 656 atom CA / van der Waals contact distance GLY 656 atom O / van der Waals contact distance, MASP-2 TYR 607 atom CD1 / van der Waals contact distance, MASP-2 PRO 606 atom O / d(C3,CA1) / d(CA1,N1)2 / d(H4,O1) / d(H4,O2) / d(O1,O2) / d(CA1,O2) / d(CA6,O1) / d(CA6,O2) / d(CA1,C5) / d(O2,H3) / d(N2,C2) / d(CA5,N2) / d(N2,C4) / d(N2,C6) / d(N2,CA3) / d(N2,O3) / d(O4,H2): unit not given beside the values
Details: for Ligand-pharmacophore element distance, pharmacophore element C2 / Ligand-pharmacophore element distance, pharmacophore element C3 / Ligand-pharmacophore element distance, pharmacophore element C4 / Ligand-pharmacophore element distance, pharmacophore element C5 / Ligand-pharmacophore element distance, pharmacophore element C6 / Ligand-pharmacophore element distance, pharmacophore element C7 / Ligand-pharmacophore element distance, pharmacophore element CA1 / Ligand-pharmacophore element distance, pharmacophore element CA2 / Ligand-pharmacophore element distance, pharmacophore element CA3 / Ligand-pharmacophore element distance, pharmacophore element CA4 / Ligand-pharmacophore element distance, pharmacophore element CA5 / Ligand-pharmacophore element distance, pharmacophore element CA6: Table A4-1; for d(C3,CA1) / d(CA1,N1)2 / d(CA1,O1) / d(CA1,O2) / d(H4,O1) / d(H4,O2) / d(O1,O2) / d(CA1,N1): Table A5-1 pharmacophore: distance between elements, S2/S1 region; for d(N2,C2) / d(N2,CA2) / d(O2,H3) / d(O2,N2): Table A5-2 pharmacophore distance, S3/S4 region; for a(C3, CA1, O1) / a(CA1, O1, O2) / a(O1, O2, H4) / a(N1, CA1, O1) b) / A(N1, CA1, O1) a): Table A6-1 pharmacophore angle; for a(N1, CA1, O1) b): Methyl-amino-pyridine compounds; for a(O1, O2, H3) / a(O1, O2, N2) / a(O2, N2, C2) / a(O2, N2, CA2): Table A6-2 pharmacophore angle; for Pharmacophore torsion angle a(C3, CA1, O1, H4) / Pharmacophore torsion angle a(H4, O1, O2, H3) / Pharmacophore torsion angle a(H4, O1, O2, N2) / Pharmacophore torsion angle a(N1, CA1, O1, H4) / Pharmacophore torsion angle a(O1, H4, O2, CA1) / Pharmacophore torsion angle a(O1, O2, N2, C2) / Pharmacophore torsion angle a(N1, CA1, O2, H4): Table A7-1; for Pharmacophore torsion angle a(C3, CA1, O1, H4) / Pharmacophore torsion angle a(H4, O1, O2, H3) / Pharmacophore torsion angle a(H4, O1, O2, N2) / Pharmacophore torsion angle a(N1, CA1, O1, H4) / Pharmacophore torsion angle a(O1, H4, O2, CA1) / Pharmacophore torsion angle a(O1, O2, N2, C2) / Pharmacophore torsion angle a(O1, O2, N2, CA2) / Pharmacophore torsion angle a(O1, O2, N2, CA4) / Pharmacophore torsion angle a(N1, CA1, O2, H4): between pharmacophore elements of the bound compound; for Pharmacophore torsion angle a(O1, O2, N2, CA2) / Pharmacophore torsion angle a(O1, O2, N2, CA4): Table A7-2; for A(N1, CA1, O1) a): all compounds with protonatable center N1 except Methyl-amino-pyridine
Procedure, shortened: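 Inhibitor complexes were obtained by soaking crystals of E. coli-derived human MASP-2 CCP2-SP. Synchrotron diffraction at 1.0 wavelength, molecular replacement and partial refinement gave the models; one pose per ligand was chosen for contact analysis.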

MASP-2 CCP2-SP, sequence (O00187 445-686): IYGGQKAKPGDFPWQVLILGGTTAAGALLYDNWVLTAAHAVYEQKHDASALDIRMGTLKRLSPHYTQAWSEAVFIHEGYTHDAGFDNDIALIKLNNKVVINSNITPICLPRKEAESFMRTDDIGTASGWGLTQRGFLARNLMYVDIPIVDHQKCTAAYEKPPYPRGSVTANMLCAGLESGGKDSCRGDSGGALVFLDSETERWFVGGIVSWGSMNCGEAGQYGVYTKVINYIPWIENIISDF
MASP-2 CCP2-SP, sequence (O00187 364-432 partner): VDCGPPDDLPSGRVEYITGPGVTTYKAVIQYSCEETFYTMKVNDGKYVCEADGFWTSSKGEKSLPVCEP

| Compound | Ligand-pharmacophore element distance, pharmacophore element C2 | Ligand-pharmacophore element distance, pharmacophore element C3 | Ligand-pharmacophore element distance, pharmacophore element C4 | Ligand-pharmacophore element distance, pharmacophore element C5 | Ligand-pharmacophore element distance, pharmacophore element C6 | Ligand-pharmacophore element distance, pharmacophore element C7 | Ligand-pharmacophore element distance, pharmacophore element CA1 | Ligand-pharmacophore element distance, pharmacophore element CA2 | Ligand-pharmacophore element distance, pharmacophore element CA3 | Ligand-pharmacophore element distance, pharmacophore element CA4 | Ligand-pharmacophore element distance, pharmacophore element CA5 | Ligand-pharmacophore element distance, pharmacophore element CA6 | d(CA1,O1) | d(CA1,O2) | d(H4,O1) | d(H4,O2) | d(O1,O2) | d(N2,CA2) | d(O2,H3) | d(O2,N2) | also measured |
| --- | --- | --- | --- | --- | --- | --- | --- | --- | --- | --- | --- | --- | --- | --- | --- | --- | --- | --- | --- | --- | --- |
| Cc1nc(N)ccc1CNC(=O)[C@H](C)NC(=O)[C@H]1C[C@@H](c2cccc3ccccc23)CCN1.Cl.Cl [1297_4] | 0.31 | 0.18 | 0 | 0 | 0 | 0 | 0.48 | 0.24 | 0 | 0.98 | 0 | 0 | 4.44 | 3.67 | 4.35 | 3.67 | 3.50 | 5.72 | 4.02 | 2.76 | d(C3,CA1): 2.87; d(CA1,N1)2: 1.37; d(N2,C2): 1.47; a(C3, CA1, O1): 149.60; a(CA1, O1, O2): 103.60; a(O1, O2, H4): 129.06; a(N1, CA1, O1) b): 174.41; a(O1, O2, H3): 145.24; a(O1, O2, N2): 143.80; a(O2, N2, C2): 131.10; a(O2, N2, CA2): 156.08; Pharmacophore torsion angle a(C3, CA1, O1, H4): 28.23; Pharmacophore torsion angle a(H4, O1, O2, H3): 51.40; Pharmacophore torsion angle a(H4, O1, O2, N2): 142.36; Pharmacophore torsion angle a(N1, CA1, O1, H4): 26.25; Pharmacophore torsion angle a(O1, H4, O2, CA1): −89.51; Pharmacophore torsion angle a(O1, O2, N2, C2): 110.29; Pharmacophore torsion angle a(O1, O2, N2, CA2): 126.11; Pharmacophore torsion angle a(O1, O2, N2, CA4): 105.94 |
| Cc1nc(N)ccc1CNC(=O)[C@H](C)NC(=O)[C@H]1C[C@@H](c2cccc3ccccc23)CCN1.Cl.Cl [1297_5] | 0.24 | 0.29 | 0 | 0 | 0 | 0 | 0.44 | 0.07 | 0 | 1.22 | 0 | 0 | 4.59 | 3.88 | 4.56 | 3.82 | 3.43 | 5.69 | 4.06 | 2.67 | d(C3,CA1): 2.86; d(CA1,N1)2: 1.38; d(N2,C2): 1.43; a(C3, CA1, O1): 150.41; a(CA1, O1, O2): 102.43; a(O1, O2, H4): 132.64; a(N1, CA1, O1) b): 174.11; a(O1, O2, H3): 146.79; a(O1, O2, N2): 147.10; a(O2, N2, C2): 132.77; a(O2, N2, CA2): 157.05; Pharmacophore torsion angle a(C3, CA1, O1, H4): 30.12; Pharmacophore torsion angle a(H4, O1, O2, H3): 47.86; Pharmacophore torsion angle a(H4, O1, O2, N2): 144.38; Pharmacophore torsion angle a(N1, CA1, O1, H4): 10.41; Pharmacophore torsion angle a(O1, H4, O2, CA1): −86.41; Pharmacophore torsion angle a(O1, O2, N2, C2): 111.81; Pharmacophore torsion angle a(O1, O2, N2, CA2): 122.50; Pharmacophore torsion angle a(O1, O2, N2, CA4): 101.00 |
| Cc1nc(N)ccc1CNC(=O)C(C)NC(=O)C1CC(c2cccc3ccccc23)CCN1.Cl.Cl (stereo not shown) [1297_6] | 0.33 | 0.4 | 0 | 0 | 0 | 0 | 0.36 | 0.24 | 0 | 1.14 | 0 | 0 | 4.73 | 4.23 | 4.65 | 4.26 | 3.53 | 5.72 | 4.15 | 2.83 | d(C3,CA1): 2.86; d(CA1,N1)2: 1.38; d(N2,C2): 1.44; a(C3, CA1, O1): 150.35; a(CA1, O1, O2): 105.49; a(O1, O2, H4): 133.61; a(N1, CA1, O1) b): 173.49; a(O1, O2, H3): 144.79; a(O1, O2, N2): 141.32; a(O2, N2, C2): 116.76; a(O2, N2, CA2): 154.05; Pharmacophore torsion angle a(C3, CA1, O1, H4): 27.46; Pharmacophore torsion angle a(H4, O1, O2, H3): 43.22; Pharmacophore torsion angle a(H4, O1, O2, N2): 150.19; Pharmacophore torsion angle a(N1, CA1, O1, H4): 5.20; Pharmacophore torsion angle a(O1, H4, O2, CA1): −89.84; Pharmacophore torsion angle a(O1, O2, N2, C2): 132.97; Pharmacophore torsion angle a(O1, O2, N2, CA2): 131.04; Pharmacophore torsion angle a(O1, O2, N2, CA4): 109.63 |
| C[C@H](NC(=O)[C@H]1C[C@H](Cc2ccccc2)CN1)C(=O)NCc1ccc(C(=N)N)cc1.Cl.Cl [1306_1] | 0 | 0 | 0 | 0 | 0 | 0 | 0.05 | 0.6 | 0 | 0 | 0 | 0 | 4.38 | 4.22 | 4.25 | 5.09 | 3.06 | 6.06 | 5.26 | 2.66 | d(CA1,N1): 3.54; a(CA1, O1, O2): 107.94; a(O1, O2, H4): 143.05; A(N1, CA1, O1) a): 158.44; a(O1, O2, H3): 152.11; a(O1, O2, N2): 135.46; a(O2, N2, CA2): 155.89; Pharmacophore torsion angle a(H4, O1, O2, H3): 36.21; Pharmacophore torsion angle a(H4, O1, O2, N2): 120.80; Pharmacophore torsion angle a(N1, CA1, O2, H4): 106.51; Pharmacophore torsion angle a(O1, H4, O2, CA1): −170.32; Pharmacophore torsion angle a(O1, O2, N2, CA2): 136.58 |
| C[C@H](NC(=O)[C@H]1C[C@H](Cc2ccccc2)CN1)C(=O)NCc1ccc(C(=N)N)cc1.Cl.Cl [1306_2] | 0 | 0 | 0 | 0 | 0 | 0 | 0.74 | 1.14 | 0 | 0 | 0 | 0 | 3.99 | 4.29 | 6.07 | 5.71 | 2.68 | 6.15 | 4.46 | 2.71 | d(CA1,N1): 3.60; a(CA1, O1, O2): 114.80; a(O1, O2, H4): 153.92; A(N1, CA1, O1) a): 161.00; a(O1, O2, H3): 151.24; a(O1, O2, N2): 153.80; a(O2, N2, CA2): 158.08; Pharmacophore torsion angle a(H4, O1, O2, H3): 40.51; Pharmacophore torsion angle a(H4, O1, O2, N2): 134.08; Pharmacophore torsion angle a(N1, CA1, O2, H4): −77.87; Pharmacophore torsion angle a(O1, H4, O2, CA1): −12.97; Pharmacophore torsion angle a(O1, O2, N2, CA2): 124.98 |
